Measurements as given in ChEMBL document CHEMBL5724914, “Linking interpersonal differences in gut microbiota composition and drug biotransformation activity” (2024).

Experiments:
[1] = (§1) The drug is tested on Z-009 corresponding to pig gut metagenome with ENA study accession number: PRJEB37062 and ENA sample accession number: ERS12561809 for biotransformation under anaerobic condition. The drug concentrations were measured over 9 timepoints collected between 0 and 24 hours of incubation by liquid-chromatography-coupled mass spectrometry (LC–MS); conditions: 2 µM
[2] = as §1, with “WLS-086” for “Z-009”, “human” for “pig”, “ERS12561752” for “ERS12561809”; conditions: 2 µM
[3] = human gut metagenome, 24 h, 2 µM
[4] = human gut metagenome, 24 h, 2 µM; remark: listed apart in the source
[5] = human gut metagenome, 24 h, 2 µM; remark: listed apart in the source
[6] = as §1, with “Z-024” for “Z-009”, “ERS12561823” for “ERS12561809”; conditions: 2 µM
[7] = human gut metagenome, 24 h, 2 µM; remark: listed apart in the source
[8] = as §1, with “Z-014” for “Z-009”, “rat” for “pig”, “ERS12561814” for “ERS12561809”; conditions: 2 µM
[9] = as §1, with “Z-006” for “Z-009”, “mouse” for “pig”, “ERS12561806” for “ERS12561809”; conditions: 2 µM
[10] = as §1, with “Z-012” for “Z-009”, “to” for “to pig gut”, “ERS12561812” for “ERS12561809”; conditions: 2 µM
[11] = as §1, with “Z-004” for “Z-009”, “to” for “to pig gut”, “ERS12561804” for “ERS12561809”; conditions: 2 µM
[12] = human gut metagenome, 24 h, 2 µM; remark: listed apart in the source
[13] = as §1, with “Z-005” for “Z-009”, “to” for “to pig gut”, “ERS12561805” for “ERS12561809”; conditions: 2 µM
[14] = human gut metagenome, 24 h, 2 µM; remark: listed apart in the source
[15] = human gut metagenome, 24 h, 2 µM; remark: listed apart in the source
[16] = as §1, with “Z-002” for “Z-009”, “rabbit” for “pig”, “ERS12561802” for “ERS12561809”; conditions: 2 µM
[17] = as §1, with “WLS-350” for “Z-009”, “human” for “pig”, “ERS12561789” for “ERS12561809”; conditions: 2 µM
[18] = as §1, with “WLS-310” for “Z-009”, “human” for “pig”, “ERS12561785” for “ERS12561809”; conditions: 2 µM
[19] = human gut metagenome, 24 h, 2 µM; remark: listed apart in the source
[20] = human gut metagenome, 24 h, 2 µM; remark: listed apart in the source
Further: call rule not given here.

SMILES	Bacterial Biotransformation [1]	Bacterial Biotransformation [2]	Bacterial Biotransformation [3]	Bacterial Biotransformation [4]	Bacterial Biotransformation [5]	Bacterial Biotransformation [6]	Bacterial Biotransformation [7]	Bacterial Biotransformation [8]	Bacterial Biotransformation [9]	Bacterial Biotransformation [10]	Bacterial Biotransformation [11]	Bacterial Biotransformation [12]	Bacterial Biotransformation [13]	Bacterial Biotransformation [14]	Bacterial Biotransformation [15]	Bacterial Biotransformation [16]	Bacterial Biotransformation [17]	Bacterial Biotransformation [18]	Bacterial Biotransformation [19]	Bacterial Biotransformation [20]
CC1=C(CC(=O)O)c2cc(F)ccc2/C1=C\c1ccc([S+](C)[O-])cc1 (configuration not stated)	Compound NOT metabolized	Compound metabolized	Compound metabolized	Compound metabolized	Compound metabolized	Compound metabolized	Compound metabolized	Compound NOT metabolized	Compound NOT metabolized	Compound NOT metabolized	Compound NOT metabolized	Compound metabolized	Compound NOT metabolized	Compound metabolized	Compound metabolized	Compound NOT metabolized	Compound metabolized	Compound metabolized	–	–
N[C@@H](Cc1ccc(N(CCCl)CCCl)cc1)C(=O)O	–	Compound metabolized	–	–	–	Compound metabolized	Compound NOT metabolized	–	–	–	–	–	–	–	Compound NOT metabolized	Compound metabolized	Compound NOT metabolized	–	Compound metabolized	Compound metabolized
CN(C)CCc1c[nH]c2ccc(CS(=O)(=O)N3CCCC3)cc12 [ALMOTRIPTAN]	–	Compound metabolized	Compound NOT metabolized	Compound NOT metabolized	Compound metabolized	–	Compound NOT metabolized	–	–	–	–	Compound NOT metabolized	–	Compound NOT metabolized	Compound NOT metabolized	–	Compound NOT metabolized	Compound metabolized	Compound NOT metabolized	Compound NOT metabolized
CCCCC(=O)O[C@]1(C(=O)CO)[C@@H](C)C[C@H]2[C@@H]3CCC4=CC(=O)C=C[C@]4(C)[C@@]3(F)[C@@H](O)C[C@@]21C [BETAMETHASONE VALERATE]	–	Compound metabolized	Compound metabolized	Compound metabolized	Compound metabolized	–	Compound NOT metabolized	–	–	–	–	Compound metabolized	–	Compound metabolized	Compound NOT metabolized	–	Compound NOT metabolized	Compound metabolized	Compound NOT metabolized	Compound NOT metabolized
Cc1nc(Nc2ncc(C(=O)Nc3c(C)cccc3Cl)s2)cc(N2CCN(CCO)CC2)n1 [DASATINIB ANHYDROUS]	–	Compound metabolized	Compound metabolized	Compound metabolized	Compound metabolized	–	Compound metabolized	–	–	–	–	Compound metabolized	–	Compound NOT metabolized	Compound NOT metabolized	–	Compound NOT metabolized	Compound metabolized	Compound NOT metabolized	Compound NOT metabolized
CNCC[C@H](Oc1cccc2ccccc12)c1cccs1 [DULOXETINE]	–	Compound NOT metabolized	Compound NOT metabolized	Compound NOT metabolized	Compound NOT metabolized	–	Compound NOT metabolized	–	–	–	–	Compound metabolized	–	Compound NOT metabolized	Compound NOT metabolized	–	Compound NOT metabolized	Compound metabolized	Compound NOT metabolized	Compound NOT metabolized
COCCCC/C(=N\OCCN)c1ccc(C(F)(F)F)cc1.O=C(O)/C=C\C(=O)O [FLUVOXAMINE MALEATE]	–	Compound NOT metabolized	Compound metabolized	Compound NOT metabolized	Compound NOT metabolized	–	Compound metabolized	–	–	–	–	Compound NOT metabolized	–	Compound NOT metabolized	Compound NOT metabolized	–	Compound NOT metabolized	Compound metabolized	Compound NOT metabolized	Compound NOT metabolized
CN1CCN(C2=Nc3ccccc3Oc3ccc(Cl)cc32)CC1.O=C(O)CCC(=O)O [LOXAPINE SUCCINATE]	–	Compound NOT metabolized	Compound NOT metabolized	Compound NOT metabolized	Compound NOT metabolized	–	Compound NOT metabolized	–	–	–	–	Compound NOT metabolized	–	Compound NOT metabolized	Compound NOT metabolized	–	Compound NOT metabolized	Compound NOT metabolized	Compound NOT metabolized	Compound NOT metabolized
N#Cc1ccc2c(c1)N(CCCN1CCC(O)CC1)c1ccccc1S2 [PERICIAZINE]	–	Compound metabolized	Compound metabolized	Compound metabolized	Compound metabolized	–	Compound NOT metabolized	–	–	–	–	Compound NOT metabolized	–	Compound metabolized	Compound NOT metabolized	–	Compound NOT metabolized	Compound metabolized	Compound NOT metabolized	Compound NOT metabolized
C[C@]12C=CC(=O)C=C1CC[C@@H]1[C@@H]2C(=O)C[C@@]2(C)[C@H]1CC[C@]2(O)C(=O)CO [PREDNISONE]	Compound metabolized	Compound metabolized	Compound metabolized	Compound metabolized	–	Compound metabolized	Compound metabolized	Compound NOT metabolized	Compound metabolized	Compound metabolized	Compound metabolized	–	Compound NOT metabolized	Compound metabolized	Compound metabolized	Compound metabolized	Compound metabolized	Compound metabolized	Compound NOT metabolized	–
CNNCc1ccc(C(=O)NC(C)C)cc1 [PROCARBAZINE]	–	Compound metabolized	–	Compound NOT metabolized	Compound metabolized	Compound metabolized	Compound metabolized	Compound NOT metabolized	–	Compound metabolized	Compound NOT metabolized	Compound NOT metabolized	Compound NOT metabolized	Compound NOT metabolized	Compound NOT metabolized	–	Compound NOT metabolized	Compound metabolized	Compound NOT metabolized	Compound NOT metabolized
CCS(=O)(=O)CCn1c([N+](=O)[O-])cnc1C [TINIDAZOLE]	Compound metabolized	Compound metabolized	Compound metabolized	–	Compound metabolized	Compound metabolized	Compound metabolized	Compound metabolized	Compound metabolized	Compound metabolized	Compound metabolized	Compound metabolized	Compound metabolized	Compound metabolized	Compound metabolized	Compound metabolized	Compound metabolized	Compound metabolized	Compound metabolized	Compound metabolized
